# Results as given in patent US20240067632A1, “WEE1 Degrading Compounds and Uses Thereof” (Bristol-Myers Squibb Company, priority 2022, published 2024).
# Read-outs that look alike come from different tables or passages of the source.
# How the values were obtained:
# WEE1 = biological target: T1, WEE1 (Homo sapiens, UniProt P30291+Q96SW2); assay: WEE1-ePL degradation assay (LentiX-WEE1-ePL-GSPT1-ND cells, InCELL Hunter luminescence, 4 h); format: cell-based; details: 293T-LentiX WEE1-ePL cells; for DC50: read-out: 293T-LentiX WEE1-ePL Degradation 4 hr (EC50)
# T1 construct: C-terminal ePL-tagged (DiscoverX, Fremont, CA) full-length WEE1 expression construct; expressed in transfected cells; host or cells: LentiX-HEK293T (Invitrogen), lentiviral transduction; co-expressing GSPT1-GN (G576N, lacking the first 158 amino acids)
# Summary of the method: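 First, compounds were pre-plated as 10-point, 3-fold dilutions (top 1 uM or 10 uM) with DMSO control; next, WEE1-ePL-expressing HEK293T cells were added and held 4 h at 37 °C; finally, InCELL Hunter reagent was applied for 30 min before luminescence reading. A 4PL fit gave EC50 and Ymin.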
# MKN45 cells = assay: MKN45 cell proliferation assay (Cell-Titer-Glo, 120 h); format: cell-based; details: for EC50: Homo sapiens, MKN-45, 120 h, Cell-Titer-Glo, read-out: MKN45 Cell Prolif. 120 hr (EC50); for MKN45 Cell Prolif. 120 hr (Ymin-Obs): minimal percent of DMSO control observed in the concentrations tested
# Summary of the method: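 Growth inhibition was read as blank-corrected Cell-Titer-Glo luminescence expressed as percent DMSO control after 120 h at 37 C, 400 cells/well. Compounds tested in triplicate as 10-point half-log series from 1 or 10 uM, 0.1% DMSO; four-parameter fit gave EC50, and lowest observed percent control was reported as Ymin-obs.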
# [1] = lower limit of the fit (0 = luciferase inhibitor, Ymax = DMSO control)
# [2] = lower limit of the fit (Ymin=0 luciferase inhibitor, Ymax DMSO control)
SMILES,293T-LentiX WEE1-ePL Degradation 4 hr (Ymin) (WEE1; [1]),DC50 (WEE1) [nM],EC50 (MKN45 cells; growth inhibition) [nM],293T-LentiX WEE1-ePL Degradation 4 hr (Ymin) (WEE1; [2]),EC50 (MKN45 cells) [nM],MKN45 Cell Prolif. 120 hr (Ymin-Obs) (MKN45 cells)
"O=C1CCC(N2Cc3cc(O[C@H]4CCN(Cc5ccc6nc(C7CCOCC7)ccc6c5)C4)c(F)cc3C2=O)C(=O)N1 (stereo partly drawn) [3-(6-fluoro-5-{[(3S)-1-{[2-(oxan-4-yl)quinolin-6-yl]methyl}pyrrolidin-3-yl]oxy}-1-oxo-2,3-dihydro-1H-isoindol-2-yl)piperidine-2,6-dione]",–,3,–,30.27,7.69,15.44
"Cc1nc2ccccc2cc1CN1CC[C@H](Oc2ccc3c(c2)C(=O)N(C2CCC(=O)NC2=O)C3)C1 (stereo partly drawn) [3-(6-{[(3S)-1-[(2-methylquinolin-3-yl)methyl]pyrrolidin-3-yl]oxy}-1-oxo-2,3-dihydro-1H-isoindol-2-yl)piperidine-2,6-dione]",87.055,–,–,–,–,79.9
"O=C1CCC(N2Cc3ccc(O[C@H]4CCN(Cc5cc6ccccc6cn5)C4)cc3C2=O)C(=O)N1 (stereo partly drawn) [3-(6-{[(3S)-1-[(isoquinolin-3-yl)methyl]pyrrolidin-3-yl]oxy}-1-oxo-2,3-dihydro-1H-isoindol-2-yl)piperidine-2,6-dione]",93.8,–,0.399,–,–,82.45
"N#Cc1ccc2cc(CN3CC[C@H](Oc4ccc5c(c4)CN(C4CCC(=O)NC4=O)C5=O)C3)ncc2c1 (stereo partly drawn) [3-{[(3S)-3-{[2-(2,6-dioxopiperidin-3-yl)-1-oxo-2,3-dihydro-1H-isoindol-5-yl]oxy}pyrrolidin-1-yl]methyl}isoquinoline-7-carbonitrile]",29,1.87,10,–,–,8.661
"N#Cc1nc2ccccc2cc1CN1CC[C@H](Oc2ccc3c(c2)CN(C2CCC(=O)NC2=O)C3=O)C1 (stereo partly drawn) [3-{[(3S)-3-{[2-(2,6-dioxopiperidin-3-yl)-1-oxo-2,3-dihydro-1H-isoindol-5-yl]oxy}pyrrolidin-1-yl]methyl}quinoline-2-carbonitrile]",29,1.2,5.83,–,–,6.985
"O=C1CCC(N2Cc3cc(O[C@H]4CCN(Cc5ccc6nc(N7CCS(=O)(=O)CC7)ccc6c5)C4)ccc3C2=O)C(=O)N1 (stereo partly drawn) [4-(6-{[(3S)-3-{[2-(2,6-dioxopiperidin-3-yl)-1-oxo-2,3-dihydro-1H-isoindol-5-yl]oxy}pyrrolidin-1-yl]methyl}quinolin-2-yl)-1λ^6-thiomorpholine-1,1-dione]",40,19.1,29.4,–,–,10.02
"N#Cc1ccc2cc(CN3C[C@@H](F)[C@H](Oc4ccc5c(c4)CN(C4CCC(=O)NC4=O)C5=O)C3)ccc2n1 (stereo partly drawn) [6-{[(3R,4R)-3-{[2-(2,6-dioxopiperidin-3-yl)-1-oxo-2,3-dihydro-1H-isoindol-5-yl]oxy}-4-fluoropyrrolidin-1-yl]methyl}quinoline-2-carbonitrile]",32.7,22.3,91.6,–,–,37.36
"N#Cc1ccc2cc(CN3CC[C@H](Oc4ccc5c(c4)CN([C@H]4CCC(=O)NC4=O)C5=O)C3)ccc2n1 [6-{[(3S)-3-({2-[(3S)-2,6-dioxopiperidin-3-yl]-1-oxo-2,3-dihydro-1H-isoindol-5-yl}oxy)pyrrolidin-1-yl]methyl}quinoline-2-carbonitrile]",–,2.46,–,28.06,6.01,14.78
"C[C@]1(Oc2ccc3c(c2)CN(C2CCC(=O)NC2=O)C3=O)CCN(Cc2ccc3nc(C#N)ccc3c2)C1 (stereo partly drawn) [6-{[(3S)-3-{[2-(2,6-dioxopiperidin-3-yl)-1-oxo-2,3-dihydro-1H-isoindol-5-yl]oxy}-3-methylpyrrolidin-1-yl]methyl}quinoline-2-carbonitrile]",94,–,> 10000,–,–,80.88

# More lines, main results first:
293T-LentiX WEE1-ePL Degradation 4 hr (Ymin) (WEE1; [1]),DC50 (WEE1) [nM],EC50 (MKN45 cells; growth inhibition) [nM],293T-LentiX WEE1-ePL Degradation 4 hr (Ymin) (WEE1; [2]),EC50 (MKN45 cells) [nM],SMILES,MKN45 Cell Prolif. 120 hr (Ymin-Obs) (MKN45 cells)
34,10.6,53.7,–,–,"O=C1CCC(N2Cc3cc(O[C@H]4CCN(Cc5cc6ccccc6cn5)C4)c(F)cc3C2=O)C(=O)N1 (stereo partly drawn) [3-(6-fluoro-5-{[(3S)-1-[(isoquinolin-3-yl)methyl]pyrrolidin-3-yl]oxy}-1-oxo-2,3-dihydro-1H-isoindol-2-yl)piperidine-2,6-dione]",7.57
69.05,5070,> 10000,–,–,"Cc1ccc2cc(CN3CC[C@H](Oc4ccc5c(c4)CN(C4(C)CCC(=O)NC4=O)C5=O)C3)ccc2n1 (stereo partly drawn) [3-methyl-3-(5-{[(3S)-1-[(2-methylquinolin-6-yl)methyl]pyrrolidin-3-yl]oxy}-1-oxo-2,3-dihydro-1H-isoindol-2-yl)piperidine-2,6-dione]",83.56
28,29.8,66.8,–,–,"CNC(=O)c1ccc2cc(CN3CC[C@H](Oc4ccc5c(c4)CN(C4CCC(=O)NC4=O)C5=O)C3)ncc2c1 (stereo partly drawn) [3-{[(3S)-3-{[2-(2,6-dioxopiperidin-3-yl)-1-oxo-2,3-dihydro-1H-isoindol-5-yl]oxy}pyrrolidin-1-yl]methyl}-N-methylisoquinoline-7-carboxamide]",7.51
42,23.6,51,–,–,"O=C1CCC(N2Cc3cc(O[C@H]4CCN(Cc5ccc6nc(N7CCS(=O)(=O)CC7)ncc6c5)C4)ccc3C2=O)C(=O)N1 (stereo partly drawn) [4-(6-{[(3S)-3-{[2-(2,6-dioxopiperidin-3-yl)-1-oxo-2,3-dihydro-1H-isoindol-5-yl]oxy}pyrrolidin-1-yl]methyl}quinazolin-2-yl)-1λ^6-thiomorpholine-1,1-dione]",17.09
33.71,13.1,22.7,–,–,"N#Cc1ccc2cc(CN3C[C@H](F)[C@H](Oc4ccc5c(c4)CN(C4CCC(=O)NC4=O)C5=O)C3)ccc2n1 (stereo partly drawn) [6-{[(3R,4S)-3-{[2-(2,6-dioxopiperidin-3-yl)-1-oxo-2,3-dihydro-1H-isoindol-5-yl]oxy}-4-fluoropyrrolidin-1-yl]methyl}quinoline-2-carbonitrile]",24.13
27.19,1.71,2.72,–,–,"N#Cc1ccc2cc(CN3CC[C@H](Oc4ccc5c(c4)CN([C@H]4CCC(=O)NC4=O)C5=O)C3)cc(F)c2n1 [6-{[(3S)-3-({2-[(3S)-2,6-dioxopiperidin-3-yl]-1-oxo-2,3-dihydro-1H-isoindol-5-yl}oxy)pyrrolidin-1-yl]methyl}-8-fluoroquinoline-2-carbonitrile]",8.579
66.8,20.7,> 10000,–,–,"Cc1cc(C#N)c2cc(CN3CC[C@H](Oc4ccc5c(c4)CN(C4CCC(=O)NC4=O)C5=O)C3)ccc2n1 (stereo partly drawn) [6-{[(3S)-3-{[2-(2,6-dioxopiperidin-3-yl)-1-oxo-2,3-dihydro-1H-isoindol-5-yl]oxy}pyrrolidin-1-yl]methyl}-2-methylquinoline-4-carbonitrile]",86.89
35,7.79,32.8,–,–,"N#Cc1nc2ccc(CN3CC[C@H](Oc4ccc5c(c4)CN(C4CCC(=O)NC4=O)C5=O)C3)cc2cc1F (stereo partly drawn) [6-{[(3S)-3-{[2-(2,6-dioxopiperidin-3-yl)-1-oxo-2,3-dihydro-1H-isoindol-5-yl]oxy}pyrrolidin-1-yl]methyl}-3-fluoroquinoline-2-carbonitrile]",12.265
29.42,9.05,17.5,–,–,"CN(C)C(=O)c1ccc2cc(CN3CC[C@H](Oc4ccc5c(c4)CN(C4CCC(=O)NC4=O)C5=O)C3)ccc2n1 (stereo partly drawn) [6-{[(3S)-3-{[2-(2,6-dioxopiperidin-3-yl)-1-oxo-2,3-dihydro-1H-isoindol-5-yl]oxy}pyrrolidin-1-yl]methyl}-N,N-dimethylquinoline-2-carboxamide]",8.56
38,175,337,–,–,"CNC(=O)c1ncc2cc(CN3CC[C@H](Oc4ccc5c(c4)CN(C4CCC(=O)NC4=O)C5=O)C3)ccc2n1 (stereo partly drawn) [6-{[(3S)-3-{[2-(2,6-dioxopiperidin-3-yl)-1-oxo-2,3-dihydro-1H-isoindol-5-yl]oxy}pyrrolidin-1-yl]methyl}-N-methylquinazoline-2-carboxamide]",8.51
26.91,4.27,11.7,–,–,"CNC(=O)c1ccc2cc(CN3CC[C@H](Oc4ccc5c(c4)CN(C4CCC(=O)NC4=O)C5=O)C3)ccc2n1 (stereo partly drawn) [6-{[(3S)-3-{[2-(2,6-dioxopiperidin-3-yl)-1-oxo-2,3-dihydro-1H-isoindol-5-yl]oxy}pyrrolidin-1-yl]methyl}-N-methylquinoline-2-carboxamide]",9.36
